Data: patent US20260035376A1, “COMPOSITIONS AND METHODS FOR INHIBITION OF RAS” (TheRas, Inc., priority 2022, published 2026)

What was measured:
[1] = target: T1, Avi-KRAS G12D (1-169) GppNHp/RAF1 RBD-3×FLAG (52-151) (Homo sapiens, UniProt P01116, G12D); assay: Disrupting RAS-effector binding HTRF assay, Raf1 RBD-KRAS G12D-GppNHp; details: PPI HTRF, 50 nM Avi-KRAS G12D GppNHp, compound titration 30-0.0045 μM; read-out: Raf1 RBD-KRAS G12D-GppNHp disruption
T1 construct: 50 nM Avi-KRAS G12D (1-169) GppNHp/RAF1 RBD-3×FLAG (52-151)
T1 sequence (P01116 1-169 isoform P01116-2 G12D limits assumed): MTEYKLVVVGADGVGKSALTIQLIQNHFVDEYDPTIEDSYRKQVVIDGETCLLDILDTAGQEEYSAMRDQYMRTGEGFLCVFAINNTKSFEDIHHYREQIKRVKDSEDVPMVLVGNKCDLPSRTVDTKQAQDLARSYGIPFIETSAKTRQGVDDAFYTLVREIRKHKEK
Method: (§1) A protein:protein interaction (PPI) Homogeneous Time Resolved Fluorescence (HTRF) assay was used to determine the effectiveness of compounds of the present disclosure in disrupting KRAS protein and effector RAF1 binding.
(§2) The HTRF assay used the following reagents and proteins: (i) 50 nM Avi-KRAS G12D (1-169) GppNHp/RAF1 RBD-3×FLAG (52-151); (ii) 50 nM Avi-KRAS G12R (1-169) GppNHp/RAF1 RBD-3×FLAG (52-151); (iii) 50 nM Avi-KRAS G12V (1-169) GppNHp/RAF1 RBD-3×FLAG (52-151), (iv) 50 nM Avi-KRAS WT (1-169) GppNHp/RAF1 RBD-3×FLAG (52-151); and (v) 75 nM Avi-RAF1 RBD-3×FLAG. The assay buffer included: 50 mM Tris pH 7.5, 100 mM NaCl, 5 mM MgCl2, 0.1% BSA, […], 10% DMSO. The bead buffer included: 50 mM Tris pH 7.5, 0.01% o Tween 20. Assay volume of 20 μL was used in a 384 well plate-low volume format. Compound titration: 30-0.0045 μM, 3× dilution series.
(§3) The HTRF assay employed the following protocol:
(§4) Compounds were dispensed in assay plate (384-well, Grenier Bione #784075) using Echo (model 555) with dose response settings: 200 nL final volume, titration from 30 μM as a 10-point dilution series. Protein mix was prepared in assay buffer, and dispensed on plates, 10 μL per well, then incubated for 1 h at room temperature, with 700 rpm shaking. Reagents mix was prepared and dispensed on plates, 10 μL per well, then incubated for 1 h at room temperature, with 700 rpm shaking.
(§5) Plates were analyzed on an Envision plate reader using the following setting: Excitation 320 nm, Bandwidth 75 nM; Emission 615 nm, Bandwidth 85 nM, Gain 100%, Flashes 100, Lag 60 μs. Data were reported as percentage of activity, with DMSO as 100%. Data were plotted and analyzed using Prism 8.
(§6) The biochemical Raf1-KRAS G12D/G12R/G12V/WT-GppNHP disruption assay IC50 of selected compounds described herein are shown in Table 4.

[2] = target: T2, Avi-KRAS G12V (1-169) GppNHp/RAF1 RBD-3×FLAG (52-151) (Homo sapiens, UniProt P01116, G12V); assay: Disrupting RAS-effector binding HTRF assay, Raf1 RBD-KRAS G12V-GppNHp; details: PPI HTRF, 50 nM Avi-KRAS G12V GppNHp, compound titration 30-0.0045 μM; read-out: Raf1 RBD-KRAS G12V-GppNHp disruption
T2 construct: 50 nM Avi-KRAS G12V (1-169) GppNHp/RAF1 RBD-3×FLAG (52-151)
T2 sequence (P01116 1-169 isoform P01116-2 G12V limits assumed): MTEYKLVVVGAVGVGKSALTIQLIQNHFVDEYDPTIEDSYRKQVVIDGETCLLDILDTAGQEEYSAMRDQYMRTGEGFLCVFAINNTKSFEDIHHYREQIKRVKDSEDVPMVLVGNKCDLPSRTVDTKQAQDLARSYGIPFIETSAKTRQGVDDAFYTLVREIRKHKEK
Method: as §1, §2, §3, §4, §5, §6

[3] = target: T3, Avi-KRAS G12R (1-169) GppNHp/RAF1 RBD-3×FLAG (52-151) (Homo sapiens, UniProt P01116, G12R); assay: Disrupting RAS-effector binding HTRF assay, Raf1 RBD-KRAS G12R-GppNHp; details: PPI HTRF, 50 nM Avi-KRAS G12R GppNHp, compound titration 30-0.0045 μM; read-out: Raf1 RBD-KRAS G12R-GppNHp disruption
T3 construct: 50 nM Avi-KRAS G12R (1-169) GppNHp/RAF1 RBD-3×FLAG (52-151)
T3 sequence (P01116 1-169 isoform P01116-2 G12R limits assumed): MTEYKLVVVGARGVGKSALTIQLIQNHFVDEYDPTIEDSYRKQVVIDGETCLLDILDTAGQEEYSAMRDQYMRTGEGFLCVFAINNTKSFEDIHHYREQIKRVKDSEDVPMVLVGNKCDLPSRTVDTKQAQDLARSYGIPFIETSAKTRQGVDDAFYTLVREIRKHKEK
Method: as §1, §2, §3, §4, §5, §6

[4] = target: T4, Avi-KRAS WT (1-169) GppNHp/RAF1 RBD-3×FLAG (52-151) (Homo sapiens, UniProt P01116); assay: Disrupting RAS-effector binding HTRF assay, Raf1 RBD-KRAS WT-GppNHp; details: PPI HTRF, 50 nM Avi-KRAS WT GppNHp, compound titration 30-0.0045 μM; read-out: Raf1 RBD-KRAS WT-GppNHp disruption
T4 construct: 50 nM Avi-KRAS WT (1-169) GppNHp/RAF1 RBD-3×FLAG (52-151)
T4 sequence (P01116 1-169 isoform P01116-2 limits assumed): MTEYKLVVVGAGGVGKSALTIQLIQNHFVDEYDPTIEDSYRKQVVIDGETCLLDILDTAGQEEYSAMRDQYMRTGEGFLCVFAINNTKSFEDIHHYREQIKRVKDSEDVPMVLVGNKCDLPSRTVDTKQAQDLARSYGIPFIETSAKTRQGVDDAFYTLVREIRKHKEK
Method: as §1, §2, §3, §4, §5, §6

[5] = tested on: KRAS G12D protein/effector signaling in GP2d cells; assay: Cell-based pERK HTRF assay in GP2d cell; details: 60 min incubation
Method: A pERK assay (Perkin Elmer) was used to determine the effectiveness of compounds in disrupting KRAS G12D protein/effector signaling in cells.
On Day 1, cells (GP2d) were seeded into 96-well plates at 3×10^4 cells/well in 80 μL complete growth media (DMEM, 10% FBS).
On Day 2, cells were treated with compounds at 0.25% DMSO. The source plate was created with compounds diluted in media at 5-fold the final assay concentration. The compounds were run in a 9-point concentration curve starting at […], with a half-log dilution between concentrations. 20 μL was transferred onto the cell plates (final volume in wells was 100 μL). Plates were harvested after 60 min incubation by aspirating media and adding kit-supplied 1× supplemented lysis buffer to all wells (50 μL per well). Plates were then placed on a plate shaker and incubated at 850 rpm for an additional 30 min.
Antibody mixture solution was prepared by diluting aliquoted d2 and Eu Cryptate antibodies 1:20 in kit supplied detection buffer, and mixing the diluted antibodies solutions (1:1 v:v). 4 μL of this solution was then added to a 384-well detection plate (Perkin Elmer; 6008230).
Samples were homogenized by pipetting up and down and then transferred (16 μL of cell lysates) from the 96-well cell culture plate to two wells of the HTRF 384-well detection plate containing the antibody solution. Plates were centrifuged (524 g for 1 min) and allowed to incubate between 4 and 24 h at room temperature. Maximum signal was reached after 4 h incubation time and remained stable over a period of 24 hours. Therefore, readings could be made between 4 and 24 h of incubation. Plates were centrifuged again (524 g for 1 min), then analyzed on the EnVision plate reader using the following settings: Excitation 320 nm, Bandwidth 75 nm; Emission 615 nm, Bandwidth 85 nm; Gain 100%; Flashes 100; Lag 60 μs.

Compound	IC50 [1] [µM]	IC50 [2] [µM]	IC50 [3] [µM]	IC50 [4] [µM]	IC50 ([5]; 1 h) [µM]	IC50 [5] [µM]
COc1nc(N2CC3CCC(C2)N3)c2cc(C(F)(F)F)c(-c3ccc(F)c4sc(N)c(C#N)c34)c(F)c2n1 [Compound 1]	1 to 10	> 10	> 10	1 to 10	≤ 0.1	–
N#Cc1c(N)sc2c(F)ccc(-c3c(C(F)(F)F)cc4c(N5CC6CCC(C5)N6)nc(OCC5CCCCC5)nc4c3F)c12 [Compound 2]	> 10	> 10	> 10	> 10	–	–
CCCOc1nc(N2CC3CCC(C2)N3)c2cc(C(F)(F)F)c(-c3ccc(F)c4sc(N)c(C#N)c34)c(F)c2n1 [Compound 3]	1 to 10	> 10	> 10	1 to 10	0.1 to 1	–
N#Cc1c(N)sc2c(F)ccc(-c3c(C(F)(F)F)cc4c(N5CC6CCC(C5)N6)nc(N5CC[C@H](O)C5)nc4c3F)c12 [Compound 4]	1 to 10	> 10	> 10	1 to 10	0.1 to 1	–
N#Cc1c(N)sc2c(F)ccc(-c3c(C(F)(F)F)cc4c(N5C[C@H]6CC[C@@H](C5)N6)ncnc4c3F)c12 [Compound 5, 4-(4-((1R,5S)-3,8-diazabicyclo[3.2.1]octan-3-yl)-8-fluoro-6-(trifluoromethyl)quinazolin-7-yl)-2-amino-7-fluorobenzo[b]thiophene-3-carbonitrile]	1 to 10	> 10	> 10	1 to 10	≤ 0.1	–
N#Cc1c(N)sc2c(F)ccc(-c3c(C(F)(F)F)cc4c(N5CC6CCC(C5)N6)nc(N5CC[C@@H](O)C5)nc4c3F)c12 [Compound 6]	1 to 10	> 10	> 10	1 to 10	0.1 to 1	–
N#Cc1c(N)sc2c(F)ccc(-c3c(C(F)(F)F)cc4c(N5CC6CCC(C5)N6)nc(OCC5(O)CC5)nc4c3F)c12 [Compound 7]	1 to 10	> 10	> 10	> 10	0.1 to 1	–
CC(C)Oc1nc(N2CC3CCC(C2)N3)c2cc(C(F)(F)F)c(-c3ccc(F)c4sc(N)c(C#N)c34)c(F)c2n1 [Compound 8]	1 to 10	> 10	> 10	1 to 10	0.1 to 1	–
CNc1nc(N2CC3CCC(C2)N3)c2cc(C(F)(F)F)c(-c3ccc(F)c4sc(N)c(C#N)c34)c(F)c2n1 [Compound 9]	1 to 10	> 10	> 10	1 to 10	0.1 to 1	–
CN(C)c1nc(N2C[C@H]3CC[C@@H](C2)N3)c2cc(C(F)(F)F)c(-c3ccc(F)c4sc(N)c(C#N)c34)c(F)c2n1 [Compound 10, 4-(4-((1R,5S)-3,8-diazabicyclo[3.2.1]octan-3-yl)-2-(dimethylamino)-8-fluoro-6-(trifluoromethyl)quinazolin-7-yl)-2-amino-7-fluorobenzo[b]thiophene-3-carbonitrile]	1 to 10	> 10	> 10	> 10	> 1	–
N#Cc1c(N)sc2c(F)ccc(-c3c(C(F)(F)F)cc4c(N5CC6CCC(C5)N6)nc(OC5CC(O)C5)nc4c3F)c12 (stereo not drawn) [Compound 11]	1 to 10	> 10	> 10	> 10	0.1 to 1	–
N#Cc1c(N)sc2c(F)ccc(-c3c(C(F)(F)F)cc4c(N5CC6CCC(C5)N6)nc(OC5CC(O)C5)nc4c3F)c12 (stereo not drawn) [Compound 12]	1 to 10	> 10	> 10	1 to 10	–	0.1 to 1
N#Cc1c(N)sc2c(F)ccc(-c3c(C(F)(F)F)cc4c(N5CC6CCC(C5)N6)nc(OCCc5ccccc5)nc4c3F)c12 [Compound 13]	1 to 10	> 10	> 10	> 10	0.1 to 1	–
N#Cc1c(N)sc2c(F)ccc(-c3c(C(F)(F)F)cc4c(N5CC6CCC(C5)N6)nc(N5CCC5)nc4c3F)c12 [Compound 14]	1 to 10	> 10	> 10	1 to 10	0.1 to 1	–
COCCOc1nc(N2CC3CCC(C2)N3)c2cc(C(F)(F)F)c(-c3ccc(F)c4sc(N)c(C#N)c34)c(F)c2n1 [Compound 15]	1 to 10	> 10	> 10	1 to 10	≤ 0.1	–
N#Cc1c(N)sc2c(F)ccc(-c3c(C(F)(F)F)cc4c(N5CC6CCC(C5)N6)nc(N5CC(O)C5)nc4c3F)c12 [Compound 16]	1 to 10	> 10	> 10	1 to 10	0.1 to 1	–
N#Cc1c(N)sc2c(F)ccc(-c3c(C(F)(F)F)cc4c(N5CC6CCC(C5)N6)nc(OC5CCC5)nc4c3F)c12 [Compound 17]	1 to 10	> 10	> 10	1 to 10	0.1 to 1	–
N#Cc1c(N)sc2c(F)ccc(-c3c(C(F)(F)F)cc4c(N5CC6CCC(C5)N6)nc(OCC5(CO)CC5)nc4c3F)c12 [Compound 18]	0.1 to 1	1 to 10	1 to 10	1 to 10	≤ 0.1	–
N#Cc1c(N)sc2c(F)ccc(-c3c(C(F)(F)F)cc4c(N5CC6CCC(C5)N6)nc(OCCc5cn[nH]c5)nc4c3F)c12 [Compound 19]	1 to 10	> 10	> 10	1 to 10	≤ 0.1	–
N#Cc1c(N)sc2c(F)ccc(-c3c(C(F)(F)F)cc4c(N5CC6CCC(C5)N6)nc(N5CCCC5)nc4c3F)c12 [Compound 20]	1 to 10	> 10	> 10	1 to 10	0.1 to 1	–
